# Test results as given in publication PMC12473540, “Cytotoxic Activity of Chemical Constituents of Clerodendrum glabrum and Combretum nelsonii Root Extracts Against Selected Cancer Cell Lines” (Plants, 2025).
# Read-outs that look alike come from different tables or passages of the source.
# Legend:
# [1] = MTT cytotoxicity assay on Vero cells
# Procedure: (§1) The antiproliferative activity of the crude extracts and compounds isolated from C. glabrum and C. nelsonii were tested against heterogenous human epithelial colorectal adenocarcinoma (Caco-2) and hormone receptor positive breast cancer (MCF-7) cells using the MTT assay. The Vero African green monkey kidney cells were used as the non-cancerous cell line for comparison. Doxorubicin was used as the positive control.
# (§2) The cytotoxic activity of extracts and isolated compounds was evaluated using the MTT assay against colorectal adenocarcinoma (Caco-2, ATCC® HTB-37™), breast adenocarcinoma (MCF-7, ATCC® HTB-22™), and non-cancerous monkey kidney cells (Vero, ATCC® CCL-81™). Cell culture and maintenance were carried out following standard protocols. The cells were seeded in 96-well plates and exposed to varying concentrations of extracts (0.025–1 mg/mL) and compounds (0.2–200 µg/mL) for 48 h. Doxorubicin was used as a positive control, and DMSO as a negative control. Cell viability was determined by MTT reduction and absorbance was measured at 570 nm. LC50 values were calculated, and the selectivity index(SI) was obtained by dividing LC50 values of Vero cells by those of the cancer cell lines.
# [2] = system: hormone receptor positive breast cancer (MCF-7) cells; test: MTT cytotoxicity assay on MCF-7 cells; details: for CC50: Homo sapiens, MCF7, 48 h, read-out: MCF-7 (LC50); for Selectivity Index MCF-7: LC50 of Vero cells divided by LC50 of MCF-7
# Procedure: as §1
# as §2, with “The cells were seeded in 96-well plates and exposed to varying concentrations of extracts (0.025–1 mg/mL) and compounds (0.2–200 µg/mL) for 48 h.” left out
# [3] = MTT cytotoxicity assay on Caco-2 cells; details: African green monkey (Vero) and human (Caco-2), Caco-2
# Procedure: as §1, §2
# [4] = system: human epithelial colorectal adenocarcinoma (Caco-2) cells; test: MTT cytotoxicity assay on Caco-2 cells; details: for CC50: Homo sapiens, Caco-2, 48 h, read-out: Caco-2 (LC50)
# Procedure: as §1, §2
# MCF-7 = details: cited from earlier work
# [5] = system: human colon carcinoma SW620 cell lines; details: stigmasterol, in Table 2; cited from earlier work
# colon cancer cell Caco-2 = system: colon cancer cell Caco-2; design: method as in doi:10.4314/ecajps.v11i2.44769; details: stigmasterol; cited from earlier work
# [6] = system: triple negative breast cancer HCC70 cells; design: method as in doi:10.4314/ecajps.v11i2.44769; details: stigmasterol; cited from earlier work
# tubulin = system: tubulin; design: method as in PMID 12059907, PMID 10893310; details: combretastatin A-1; read-out: Tubulin inhibition IC50; cited from earlier work
# pancreas-a (BXPC-3) = system: pancreas-a (BXPC-3); design: method as in ref 50 = [50]; 50. Akim A. Biological Activities of Oryzanol, Stigmasterol and Microminutinin on Human Breast Cancer Cell-Line, MCF-7 Ph.D. Thesis University Putra Malaysia Serdang, Malaysia 2004; details: cited from earlier work
# prostate (DU-145) = system: prostate (DU-145); design: method as in ref 50 = [50]; 50. Akim A. Biological Activities of Oryzanol, Stigmasterol and Microminutinin on Human Breast Cancer Cell-Line, MCF-7 Ph.D. Thesis University Putra Malaysia Serdang, Malaysia 2004; details: cited from earlier work
# leukemia (P388) = system: leukemia (P388); design: method as in ref 50 = [50]; 50. Akim A. Biological Activities of Oryzanol, Stigmasterol and Microminutinin on Human Breast Cancer Cell-Line, MCF-7 Ph.D. Thesis University Putra Malaysia Serdang, Malaysia 2004; details: cited from earlier work
# colon (KM20L2) = system: colon (KM20L2); design: method as in ref 50 = [50]; 50. Akim A. Biological Activities of Oryzanol, Stigmasterol and Microminutinin on Human Breast Cancer Cell-Line, MCF-7 Ph.D. Thesis University Putra Malaysia Serdang, Malaysia 2004; details: cited from earlier work
# lung-NCS (NCI-H460) = system: lung-NCS (NCI-H460); design: method as in ref 50 = [50]; 50. Akim A. Biological Activities of Oryzanol, Stigmasterol and Microminutinin on Human Breast Cancer Cell-Line, MCF-7 Ph.D. Thesis University Putra Malaysia Serdang, Malaysia 2004; details: cited from earlier work
# [7] = system: gastric adenocarcinoma AGS cells; details: cited from earlier work
# [8] = system: human liver hepatocellular carcinoma HepG2 cells; design: method as in doi:10.18063/cp.v1i4.255, PMID 20614808, PMID 25355727, doi:10.1076/phbi.37.2.148.6082; details: ferruginol; read-out: Literature report HepG2 (IC50); cited from earlier work
# [9] = system: prostate cancer PC3 cells; design: method as in doi:10.18063/cp.v1i4.255, PMID 20614808, PMID 25355727, doi:10.1076/phbi.37.2.148.6082; details: ferruginol; read-out: Literature report PC3 (IC50); cited from earlier work
# [10] = system: colon (COL-2) cancer cells; design: method as in doi:10.18063/cp.v1i4.255, PMID 20614808, PMID 25355727, doi:10.1076/phbi.37.2.148.6082; details: ferruginol; cited from earlier work
# [11] = system: prostate cancer cells (LNCaP); design: method as in ref 45 (ref 58); details: royleanone; ref 45 (ref 58); read-out: Literature report LNCaP IC50; cited from earlier work
# [12] = system: breast MDA-MB-231 cancer cell lines; design: method as in doi:10.4103/pm.pm_265_20; details: royleanone; read-out: Literature report MDA-MB-231 IC50; cited from earlier work
# human colon HCT116 = system: human colon HCT116; design: method as in doi:10.4103/pm.pm_265_20; details: royleanone, result in words; cited from earlier work
# [13] = African green monkey, Vero kidney cells (ATCC CCL-81), non-cancerous
compound,measurement,setting,value
"COc1ccc(CCc2cc(OC)c(OC)c(OC)c2)c(OC2OC(CO)C(O)C(O)C2O)c1O [Compound 5b, combretastatin B-1-2′-O-β-D-glucopyranoside]",CC50 at 48 h,[1]; [13],83.8 µg/mL
same,CC50,[2],44.1 µg/mL
same,Selectivity Index MCF-7,[2],1.90
"CC[C@H](C=C[C@@H](C)[C@H]1CC[C@H]2[C@@H]3CC=C4C[C@@H](O)CC[C@]4(C)[C@H]3CC[C@]12C)C(C)C [Compound 6, stigmasta-5,22-dien-3β-ol]",CC50 at 48 h,[1],137 µg/mL
same,selectivity ratio at 48 h,[3],< 0.69
same,CC50,[4],> 200 µg/mL
same,CC50,[2],> 200 µg/mL
same,Selectivity Index MCF-7,[2],<0.690
same,IC50,"MCF-7; stigmasterol, read-out: MCF-7 IC50",> 500 µM
same,IC50,[5],2.79 µM
same,IC50,colon cancer cell Caco-2,132 µM
same,IC50,[6],> 500 µM
"COc1ccc(C=Cc2cc(OC)c(OC)c(OC)c2)c(OC2OC(CO)C(O)C(O)C2O)c1O [Compound 5a, combretastatin A-1-2′-O-β-D-glucopyranoside]",CC50 at 48 h,[1]; [13],83.8 µg/mL
same,CC50,[2],44.1 µg/mL
same,Selectivity Index MCF-7,[2],1.90
"COc1ccc(/C=C\c2cc(OC)c(OC)c(OC)c2)c(O)c1O [Compound 4, 3,4,5-trimethoxy-2′,3′hydroxyl-4′methoxy-stilbene]",CC50 at 48 h,[1],15.3 µg/mL
same,CC50,[2],72 µg/mL
same,Selectivity Index MCF-7,[2],0.210
same,IC50,tubulin,1.1 µM
same,BXPC-3 GI50,pancreas-a (BXPC-3),4.4 µg/mL
same,DU-145 GI50,prostate (DU-145),0.017 µg/mL
same,P388 GI50,leukemia (P388),0.3 µg/mL
same,KM20L2 GI50,colon (KM20L2),0.061 µg/mL
same,NCI-H460 GI50,lung-NCS (NCI-H460),0.74 µg/mL
"CC(C)c1cc2c(cc1O)[C@@]1(C)CCCC(C)(C)[C@@H]1CC2 [Compound 1, 12-hydroxy-abieta-8,11,13-triene]",CC50 at 48 h,[1]; African green monkey,0.0002 µg/mL
same,Selectivity Index Caco-2,[4]; Caco-2,8.23 × 10^−6
same,CC50,[4],24.3 µg/mL
same,CC50,[2],48.4 µg/mL
same,IC50,"MCF-7; ferruginol, read-out: Literature report MCF-7 (IC50)",12 µM
same,IC50,"[7]; ferruginol, read-out: Literature report AGS (IC50)",27 µM
same,IC50,[8],68.5 µM
same,IC50,[9],55 µM
same,Literature report colon (COL-2) ED50,[10],> 20 µg/mL
"COc1cccc2c1C(=O)c1c(O)c3c(c(O)c1C2=O)C[C@@](O)(C(=O)CO)C[C@@H]3O[C@H]1C[C@H](N)[C@H](O)[C@H](C)O1 [Doxorubicin, reference compound]",CC50 at 48 h,[1]; African green monkey,6.9 µg/mL
same,selectivity ratio at 48 h,[3],9.08
same,CC50,[4],0.76 µg/mL
same,CC50,[2],3.1 µg/mL
same,Selectivity Index MCF-7,[2],2.20
"CC(C)C1=C(O)C(=O)C2=C(CC[C@H]3C(C)(C)CCC[C@]23C)C1=O [Compound 2, 12-hydroxy-8,12-abietadiene-11,14-dione]",CC50 at 48 h,[1],30.7 µg/mL
same,selectivity ratio at 48 h,[3],< 0.15
same,CC50,[4],> 200 µg/mL
same,CC50,[2],> 200 µg/mL
same,Selectivity Index MCF-7,[2],<0.150
same,IC50,"[7]; royleanone, read-out: Literature report AGS IC50",18 µM
same,IC50,[11],12.5 µM
same,IC50,[12],> 250 µM
same,Literature report colon HCT116,human colon HCT116,variable
